# Data reported in patent EP0754455A1, “PHARMACEUTICAL COMPOSITIONS BASED ON AMINOMETHYLINDOLES AND THEIR THERAPEUTICAL APPLICATION AS NEUROPROTECTORS IN PARKINSON AND ALZHEIMER DISEASES” (CONSEJO SUPERIOR INVESTIGACIONES CIENTIFICAS (CSIC), priority 1995, dated 1996).
# Experiments:
# MAO-B [1] = biological target: T1, MAO-B (Rattus norvegicus, UniProt P19643); assay: MAO-B inhibition, mitochondrial portion of rat (IC50, time dependence, irreversibility), substrate PEA; assay type: biochemical, Sprague-Dawley rat; conditions: for IC50: MAO-B (lines B..), substrate PEA, rat mitochondria
# T1 construct: from tissue; host or cells: Sprague-Dawley rat liver, mitochondrial fraction
# T1 sequence (P19643 1-520): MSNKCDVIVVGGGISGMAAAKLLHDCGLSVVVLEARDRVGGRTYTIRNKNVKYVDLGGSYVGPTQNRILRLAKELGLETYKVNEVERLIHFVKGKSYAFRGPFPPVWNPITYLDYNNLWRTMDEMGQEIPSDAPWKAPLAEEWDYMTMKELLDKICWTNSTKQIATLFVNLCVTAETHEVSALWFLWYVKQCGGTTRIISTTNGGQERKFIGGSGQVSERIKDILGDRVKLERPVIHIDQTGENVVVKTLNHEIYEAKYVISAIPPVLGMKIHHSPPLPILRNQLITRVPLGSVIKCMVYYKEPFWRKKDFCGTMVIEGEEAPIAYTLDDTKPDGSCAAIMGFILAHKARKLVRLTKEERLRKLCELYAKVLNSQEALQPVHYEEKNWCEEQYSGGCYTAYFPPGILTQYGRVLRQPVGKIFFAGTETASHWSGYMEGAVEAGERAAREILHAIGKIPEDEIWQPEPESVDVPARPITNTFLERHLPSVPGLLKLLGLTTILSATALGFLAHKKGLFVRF
# Experimental: The mitochondrial portion of Sprague-Dawley rat was used to determine the MAO-A and MAO-B activity.
# Determinations were made of the comparative MAO-A and MAO-B activity inhibition curves of the various compounds under study at time 0 and 30 min. by measuring the remaining activity to 5-HT and PEA as substrates.
# MAO-B [2] = biological target: T1, MAO-B; assay: Kinetic parameters of suicide-type inhibition, MAO-B (selectivity K1 MAO-A / K1 MAO-B); assay type: biochemical, Sprague-Dawley rat; conditions: selectivity for MAO-B
# Source text: K1 is the affinity constant of the first stage of the reaction and K1 MAO-A / K1 MAO-B the expression of the selectivity.
# K^1cat is the velocity constant for the formation of the covalent irreversible complex during the second stage of the process. To compare the values of these constants towards the two forms of MAO, we express the inhibition efficacy as the ratio K^1cat/K1. The value of these constants (see Tables 2 and 3), is the result of three different experiments, with their corresponding SEM.
# dopamine uptake carrier = biological target: T2, dopamine uptake carrier (Rattus norvegicus, UniProt P23977); assay: Dopamine re-uptake in purified synaptosomes of rat brain striatal tissue; assay type: biochemical, Sprague-Dawley rats; conditions: substrate concentration 0.1 µM
# T2 construct: purified synaptosomes of brain striatal tissue from Sprague-Dawley rats; from tissue; host or cells: Sprague-Dawley rat brain striatum, purified synaptosomes
# Experimental: Kinetic studies of dopamine re-uptake were carried out in purified synaptosomes of brain striatal tissue from Sprague-Dawley rats.
# MAO-B [3] = biological target: T3, MAO-B (Homo sapiens, UniProt P27338); assay: MAO-B inhibition in homogenated human cerebral cortex; assay type: biochemical
# T3 construct: performed using homogenated human cerebral cortex obtained from autopsies; from tissue; host or cells: post-mortem human cerebral cortex homogenate
# T3 sequence (P27338 1-520): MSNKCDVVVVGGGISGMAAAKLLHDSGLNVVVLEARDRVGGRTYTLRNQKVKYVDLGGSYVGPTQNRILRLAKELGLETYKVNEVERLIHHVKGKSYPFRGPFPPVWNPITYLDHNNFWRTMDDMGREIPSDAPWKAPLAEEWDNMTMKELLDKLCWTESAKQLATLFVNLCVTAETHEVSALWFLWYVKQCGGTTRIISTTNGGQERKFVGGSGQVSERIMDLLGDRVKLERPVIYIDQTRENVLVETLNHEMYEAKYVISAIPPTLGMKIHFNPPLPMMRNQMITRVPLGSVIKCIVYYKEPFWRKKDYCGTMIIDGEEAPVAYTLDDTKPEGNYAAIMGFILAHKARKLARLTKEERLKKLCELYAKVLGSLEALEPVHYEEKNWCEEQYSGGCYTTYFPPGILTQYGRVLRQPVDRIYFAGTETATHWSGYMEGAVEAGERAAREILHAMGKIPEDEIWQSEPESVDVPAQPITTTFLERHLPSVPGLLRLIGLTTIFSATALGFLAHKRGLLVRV
# Source text: They were provided by Dr. Fco Javier González Oliván (Forensic Anatomic Institute of the Hospital Clínico Provincial in Barcelona).
# MAO-B [4] = biological target: T4, MAO-B (Mus musculus, UniProt Q8BW75); assay: Ex vivo inhibition of brain MAO-B after i.p. administration
# T4 sequence (Q8BW75 1-520): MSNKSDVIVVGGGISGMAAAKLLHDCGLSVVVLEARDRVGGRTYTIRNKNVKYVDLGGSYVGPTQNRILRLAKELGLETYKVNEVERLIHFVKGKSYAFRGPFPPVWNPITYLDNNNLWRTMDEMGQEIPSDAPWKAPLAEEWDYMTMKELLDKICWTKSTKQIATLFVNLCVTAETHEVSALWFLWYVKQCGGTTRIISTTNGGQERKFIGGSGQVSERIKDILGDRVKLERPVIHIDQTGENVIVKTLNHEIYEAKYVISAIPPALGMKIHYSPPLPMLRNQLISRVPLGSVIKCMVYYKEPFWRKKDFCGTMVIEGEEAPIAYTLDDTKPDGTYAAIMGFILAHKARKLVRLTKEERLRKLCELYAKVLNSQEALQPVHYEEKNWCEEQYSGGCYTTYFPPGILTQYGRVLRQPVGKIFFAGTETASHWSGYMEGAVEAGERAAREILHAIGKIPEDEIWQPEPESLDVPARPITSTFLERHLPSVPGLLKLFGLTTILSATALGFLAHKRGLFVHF
# Experimental: The pharmacological assays were carried out on C57/BL mice. These animals are sensitive to the induction of the symptomatology of Parkinson's disease through the action of MPTP.
# The animals were sacrificed by decapitation after 2 hours and the brains homogenised in potassium phosphate buffer 50 mM, pH 7.2. Determinations were made of the MAO-A and MAO-B activity in each case using radiometric methods.
# T2 sequence (P23977 whole entry): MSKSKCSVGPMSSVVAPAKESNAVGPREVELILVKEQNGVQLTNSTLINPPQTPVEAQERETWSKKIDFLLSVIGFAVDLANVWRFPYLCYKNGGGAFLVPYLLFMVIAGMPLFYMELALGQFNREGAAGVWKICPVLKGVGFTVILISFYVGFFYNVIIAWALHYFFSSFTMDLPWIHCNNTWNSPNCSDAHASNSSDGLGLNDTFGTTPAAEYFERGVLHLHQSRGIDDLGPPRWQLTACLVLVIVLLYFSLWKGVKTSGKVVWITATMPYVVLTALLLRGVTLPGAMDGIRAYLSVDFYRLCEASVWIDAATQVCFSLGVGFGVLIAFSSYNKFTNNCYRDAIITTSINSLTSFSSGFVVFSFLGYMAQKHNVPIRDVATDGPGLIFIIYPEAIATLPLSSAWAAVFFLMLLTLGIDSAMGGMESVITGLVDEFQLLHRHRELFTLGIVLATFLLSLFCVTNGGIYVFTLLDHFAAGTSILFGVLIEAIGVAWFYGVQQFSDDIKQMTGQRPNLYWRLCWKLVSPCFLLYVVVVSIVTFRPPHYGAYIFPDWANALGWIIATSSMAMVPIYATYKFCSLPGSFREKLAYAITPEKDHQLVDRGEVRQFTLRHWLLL
structure (smiles),measurement,setting,value
C#CCNCc1cc2cc(OCc3ccccc3)ccc2[nH]1 [FA-73],IC50,"MAO-B [1]; IC50 0 min, 0 min incubation",100 nM
same,IC50,"MAO-B [1]; IC50 30 min., 30 min incubation",15 nM
same,dependence of the inhibition on the incubation time,MAO-B [1]; MAO-B,drop in the formation of product as a function of the time of incubation
same,irreversibility of the inhibition process,"MAO-B [1]; MAO-B, inhibitor concentrations close to the IC50",irreversibility
same,K1 MAO-A/K1 MAO-B,MAO-B [2],1066.6
same,IC50,dopamine uptake carrier,150000 nM
same,IC50,MAO-B [3],200 nM
same,crossing of the hematoencephalic barrier,MAO-B [4]; concluded from brain MAO-B inhibition after 4 mg/Kg i.p. in C57/BL mice,crosses the hematoencephalic barrier
same,MAO-B ACTIVITY,"MAO-B [4]; mouse brain homogenate 2 hours after i.p., l-deprenyl 10 mg/Kg, tested compound 4 mg/Kg, control 303",16
